Where two headings read alike, the source gives them in different places.
Legend:
α1a adrenergic receptor = target: T1, α1a adrenergic receptor (Homo sapiens, UniProt P35348); assay: Radioligand binding assay ([3H]prazosin) on cloned α1-adrenoceptor subtype, membranes of transfected cells
T1 sequence (P35348 1-466): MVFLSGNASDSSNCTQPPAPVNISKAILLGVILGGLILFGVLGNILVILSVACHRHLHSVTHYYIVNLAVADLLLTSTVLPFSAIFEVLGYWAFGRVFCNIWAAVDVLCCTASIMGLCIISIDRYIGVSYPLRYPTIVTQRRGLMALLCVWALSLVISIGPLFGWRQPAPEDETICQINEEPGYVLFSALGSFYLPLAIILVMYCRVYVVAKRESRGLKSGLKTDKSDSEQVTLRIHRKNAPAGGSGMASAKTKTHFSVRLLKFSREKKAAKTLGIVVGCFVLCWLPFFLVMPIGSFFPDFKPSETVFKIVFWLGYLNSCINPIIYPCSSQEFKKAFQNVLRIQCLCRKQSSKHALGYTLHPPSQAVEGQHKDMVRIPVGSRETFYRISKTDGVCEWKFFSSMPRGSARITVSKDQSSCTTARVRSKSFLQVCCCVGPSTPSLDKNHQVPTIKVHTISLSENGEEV
Method: (§2) Determination of affinity for cloned subtypes of the cloned α1-adrenoceptor was performed in membranes from cells transfected by electroporation with DNA expressing the genes encoding each α1-adrenoceptor subtype.
(§3) Non-specific binding was determined in the presence of 10 µM phentolamine. Incubation was stopped by addition of ice-cold Tris buffer and rapid filtration through 0.2%-polyethyleneimine pretreated Schleicher & Schuell GF52 filters. […] The homogenates were centrifuged at 40000 × g × 20 minutes and the membranes were resuspended in a small volume of ice-cold buffer containing Tris 5 mM and EDTA 5 mM (pH 7.4) and immediately frozen and stored at -70°C until use.

[1] = target: T2, recombinant α1d-adrenoceptor (Homo sapiens, UniProt P25100); assay: as above
T2 sequence (P25100 1-572): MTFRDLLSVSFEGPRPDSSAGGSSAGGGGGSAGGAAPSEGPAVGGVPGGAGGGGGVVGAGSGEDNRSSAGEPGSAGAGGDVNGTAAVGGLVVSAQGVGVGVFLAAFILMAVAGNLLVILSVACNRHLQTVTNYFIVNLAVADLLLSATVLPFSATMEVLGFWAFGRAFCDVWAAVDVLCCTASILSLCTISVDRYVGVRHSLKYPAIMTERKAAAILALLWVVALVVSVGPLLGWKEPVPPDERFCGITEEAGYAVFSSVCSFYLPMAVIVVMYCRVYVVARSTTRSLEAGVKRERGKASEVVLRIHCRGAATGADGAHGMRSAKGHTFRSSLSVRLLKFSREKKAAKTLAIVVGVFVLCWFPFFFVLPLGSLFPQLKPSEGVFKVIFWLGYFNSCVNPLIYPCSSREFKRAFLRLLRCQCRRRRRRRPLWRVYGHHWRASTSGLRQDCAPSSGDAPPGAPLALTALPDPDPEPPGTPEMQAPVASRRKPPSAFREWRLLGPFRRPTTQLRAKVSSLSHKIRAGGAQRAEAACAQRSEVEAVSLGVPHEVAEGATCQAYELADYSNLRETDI
Method: as §2, §3

[2] = test system: urethral contractions (UP) induced by noradrenaline (NA); assay: Urethral contractions induced by noradrenaline injection in anaesthetised dogs, i.v. administration; assay type: in vivo; conditions: dog; for ED50: Canis lupus familiaris, iv, dose inhibiting by 50% urethral contractions induced by noradrenaline, read-out: UP ID50 NA; for R1 (DBP/NA): ratio DBP ED25 / UP ID50 NA
Method: (§1) The experiments were performed according to the method of Imagawa J. et al., J Pharmacol. Methods 22, 103-111 (1989), with substantial modifications, as follows: adult male beagle dogs, weighing 8-10 kg, were anaesthetised with pentobarbital sodium (30 mg/kg i.v. and 2 mg/kg/h i.v.), intubated and spontaneously ventilated with room air. In order to monitor systemic blood pressure (BP), a polyethylene (PE) catheter was introduced into the aortic arch through the left femoral artery. A collateral of the left femoral vein was cannulated for infusion of anaesthetic, and the right femoral vein was cannulated for administration of the compounds. For intraarterial (i.a.) injection of noradrenaline (NA), a PE catheter was introduced into the lower portion of the abdominal aorta via the right external iliac artery. Through such procedure, NA was selectively distributed to the lower urinary tract. A paramedian vertical suprapubic incision extending from the base of the pelvis to the mid-abdominal region was made and the bladder and the prostate were exposed. The bladder was manually emptied with a syringe. […] The distal end of the right or left branch of the nerve was placed on a bipolar platinum electrode. Prostatic urethral pressure was monitored with a Mikro-tip cathe[…]) introduced into the bladder via the external urethral meatus, and withdrawn until the pressure transducer was positioned in the prostatic region of the urethra. A ligature was secured between the neck of the bladder and urethra to isolate the response of the latter and to avoid any interaction with the bladder. Another ligature was put around the Mikro-tip catheter at the external meatus, to secure the catheter itself. […] Both i.a. injections of NA and stimulations of the hypogastric nerve were repeated 5 minutes after every dosing of test compound with intervals of about 5 minutes between two stimulations. In order to compare the effects of the administered compound, dose/response curves were constructed by computing, at the peak effect, the percent decrease in diastolic blood pressure and the percent inhibition of the increase in urethral pressure induced by both types of stimulation used.

[3] = test system: urethral contractions (UP) induced by hypogastric-nerve stimulation (HYP); assay: Urethral contractions induced by hypogastric-nerve stimulation in anaesthetised dogs, i.v. administration; assay type: in vivo; conditions: Canis lupus familiaris, iv, dog, dose inhibiting by 50% urethral contractions induced by hypogastric-nerve stimulation, read-out: UP ID50 HYP
Method: as §1, with “In order to compare the effects of the administered compound, dose/response curves were constructed by computing, at the peak effect, the percent decrease in diastolic blood pressure and the percent inhibition of the increase in urethral pressure induced by both types of stimulation used.” left out

[4] = test system: diastolic blood pressure (DBP); assay: Effect on diastolic blood pressure in anaesthetised dogs, i.v. administration; assay type: in vivo; conditions: dog, dose inducing a 25% decrease in diastolic blood pressure, one value spanning c3 and c4
Method: The experiments were performed according to the method of Imagawa J. et al., J Pharmacol. Methods 22, 103-111 (1989), with substantial modifications, as follows: adult male beagle dogs, weighing 8-10 kg, were anaesthetised with pentobarbital sodium (30 mg/kg i.v. and 2 mg/kg/h i.v.), intubated and spontaneously ventilated with room air. In order to monitor systemic blood pressure (BP), a polyethylene (PE) catheter was introduced into the aortic arch through the left femoral artery. A collateral of the left femoral vein was cannulated for infusion of anaesthetic, and the right femoral vein was cannulated for administration of the compounds. For intraarterial (i.a.) injection of noradrenaline (NA), a PE catheter was introduced into the lower portion of the abdominal aorta via the right external iliac artery. Through such procedure, NA was selectively distributed to the lower urinary tract. A paramedian vertical suprapubic incision extending from the base of the pelvis to the mid-abdominal region was made and the bladder and the prostate were exposed. The bladder was manually emptied with a syringe. […] The distal end of the right or left branch of the nerve was placed on a bipolar platinum electrode. Prostatic urethral pressure was monitored with a Mikro-tip catheter (5F) introduced into the bladder via the external urethral meatus, and withdrawn until the pressure transducer was positioned in the prostatic region of the urethra. A ligature was secured between the neck of the bladder and urethra to isolate the response of the latter and to avoid any interaction with the bladder. Another ligature was put around the Mikro-tip catheter at the external meatus, to secure the catheter itself. The hypogastric nerve stimulation was made with a train of rectangular pulses of 10-15 V, 10-30 Hz, width 5 msec, 8 sec duration.
After a stabilising period following the surgical procedure (30 minutes), in which arterial and prostatic urethral pressure were continuously monitored as basal values, i.a. administration of NA and stimulation of the hypogastric nerve were alternately made at intervals of 10 minutes.
The dose of NA and the parameter of hypogastric nerve stimulation chosen were such as to produce an increase of at least 100% in urethral pressure. The test compounds were administered i.v. in a cumulative manner with intervals of 15-20 min between administrations. Both i.a. injections of NA and stimulations of the hypogastric nerve were repeated 5 minutes after every dosing of test compound with intervals of about 5 minutes between two stimulations. […]

[5] = target: T3, human 5-HT1A-serotoninergic receptor (Homo sapiens, UniProt P08908); assay: Radioligand binding assay ([3H]8-OH-DPAT) on membranes of transfected HeLa cells; conditions: human receptor in HeLa cells, read-out: Affinity (Ki, nM) 5-HT1A
T3 construct: expressed in transfected cells; host or cells: HeLa
T3 sequence (P08908 1-422): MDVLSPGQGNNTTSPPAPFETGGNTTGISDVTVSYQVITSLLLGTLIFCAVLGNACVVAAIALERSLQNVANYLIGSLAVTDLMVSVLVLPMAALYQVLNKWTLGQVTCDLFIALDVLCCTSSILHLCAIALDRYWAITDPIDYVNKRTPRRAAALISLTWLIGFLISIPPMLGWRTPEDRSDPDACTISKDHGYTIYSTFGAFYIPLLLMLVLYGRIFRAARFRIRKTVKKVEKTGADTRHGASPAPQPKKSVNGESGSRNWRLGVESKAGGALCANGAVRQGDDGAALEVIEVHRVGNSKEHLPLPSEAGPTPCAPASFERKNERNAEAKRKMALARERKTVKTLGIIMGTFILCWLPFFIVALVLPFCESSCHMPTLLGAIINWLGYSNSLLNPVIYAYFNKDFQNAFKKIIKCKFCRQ
Source text: Data were expressed as mean of Ki.

α1L adrenoceptor = assay: Functional antagonism of noradrenaline-induced contractions of rabbit aorta pretreated with chloroethylclonidine; assay type: biochemical; conditions: functional affinity, NA-induced contractions
Method: Adult male New Zealand rabbits were sacrificed by cervical dislocation. The aorta was removed, placed in Krebs-Henseleit buffer and dissected free of adhering tissue.
Each antagonist concentration was tested using 2-3 aortic rings from different rabbits.
Dose ratios (i.e., the ratio between the concentrations of noradrenaline required to produce half-maximal response in the presence and in the absence of the test antagonist) were calculated at each concentration of the compounds.

[6] = read-out: Affinity (Ki, nM) α1d, recombinant receptor, [3H]prazosin

SMILES | Ki (α1a adrenergic receptor) [nM] | Ki [1] [nM] | also measured
Cc1onc(-c2c(F)cccc2Cl)c1C(=O)NCCCN1CCN(c2ccccc2OCC(F)(F)F)CC1 [Example 12, 3-(2-Chloro-6-fluorophenyl)-5-methyl-N-{3-[4-[2-(2,2,2-trifluoroethoxy)phenyl)-1-piperazinyl]-propyl}-isoxazole-4-carboxamide] | 0.16 | 2.19 | 
O=C(NCCCN1CCN(c2ccc(F)cc2OCC(F)(F)F)CC1)c1conc1-c1ccc(F)cc1 [Example 8, 3-(4-Fluorophenyl)-N-{3-[4-[4-fluoro-2-(2,2,2-trifluoroethoxy)-phenyl]-1-piperazinyl]-propyl}-isoxazole-4-carboxamide] | 0.11 | 25.8 | 
Cc1onc(-c2c(F)cccc2Cl)c1C(=O)NCCCN1CCN(c2ccc(F)cc2OCC(F)(F)F)CC1 [Example 9, 3-(2-Chloro-6-fluorophenyl)-N-{3-[4-[4-fluoro-2-(2,2,2-trifluoroethoxy)-phenyl]-1-piperazinyl]-propyl}-5-methylisoxazole-4-carboxamide] | 0.4 | 6.15 | 
Cc1onc(-c2ccccc2)c1C(=O)NCCCN1CCN(c2cc(Cl)ccc2O)CC1 [Example 2, N-{3-[4-(5-Chloro-2-hydroxyphenyl)-1-piperazinyl]-propyl}-5-methyl-3-phenylisoxazole-4-carboxamide] | 1.16 | 25.2 | 
Cc1onc(-c2ccccc2Cl)c1C(=O)NCCCN1CCN(c2ccc(F)cc2OCC(F)(F)F)CC1 [Example 11] | 0.12 | 4.66 | 
Cc1onc(-c2ccccc2)c1C(=O)NCCCN1CCN(c2ccc(F)cc2OCC(F)(F)F)CC1 [Example 6, N-{3-[4-[4-Fluoro-2-(2,2,2-trifluoroethoxy)-phenyl]-1-piperazinyl]-propyl}-5-methyl-3-phenylisoxazole-4-carboxamide] |  |  | ED50 [2]: 2.4 µg/kg; R1 (DBP/NA) [2]: 82; ED50 [3]: 4.5 µg/kg; DBP ED25 [4]: 196.7 µg/kg; Ki [1, 6]: 18.9 nM
COc1ccc(OCC(F)(F)F)cc1N1CCN(CCCNC(=O)c2c(-c3ccccc3)noc2C)CC1 [Example 4, N-{3-[4-[2-Methoxy-5-(2,2,2-trifluoroethoxy)phenyl]-1-piperazinyl]-propyl}-5-methyl-3-phenylisoxazole-4-carboxamide] | 17 | 128 | Ki [5]: > 1000 nM
Cc1onc(-c2c(Cl)cccc2Cl)c1C(=O)NCCCN1CCN(c2ccc(F)cc2OCC(F)(F)F)CC1 [Example 10, 3-(2,6-Dichlorophenyl)-N-{3-[4-[4-fluoro-2-(2,2,2-trifluoroethoxy)-phenyl]-1-piperazinyl]-propyl}-5-methylisoxazole-4-carboxamide.] | 2.28 | 38.6 | 
COc1ccc(Cl)cc1N1CCN(CCCNC(=O)c2c(-c3ccccc3)noc2C)CC1 [Example 1, N-{3-[4-(5-Chloro-2-methoxyphenyl)-1-piperazinyl]-propyl}-5-methyl-3-phenylisoxazole-4-carboxamide] |  |  | ED50 [2]: 3.4 µg/kg; R1 (DBP/NA) [2]: 101.6; DBP ED25 [4]: 345.4 µg/kg; Ki [1, 6]: 2.72 nM
Cc1onc(-c2ccccc2)c1C(=O)NCCCN1CCN(c2cc(F)ccc2OCC(F)(F)F)CC1 [Example 5, N-{3-[4-[5-Fluoro-2-(2,2,2-trifluoroethoxy)-phenyl]-1-piperazinyl]-propyl}-5-methyl-3-phenylisoxazole-4-carboxamide] |  |  | ED50 [2]: 2.7 µg/kg; R1 (DBP/NA) [2]: 73; ED50 [3]: 3.4 µg/kg; DBP ED25 [4]: 197.0 µg/kg; pKb (α1L adrenoceptor): 8.79
Cc1onc(-c2ccccc2)c1C(=O)NCCCN1CCN(c2cc(Cl)ccc2OS(=O)(=O)C(F)(F)F)CC1 [Example 7, N-{3-[4-[(5-Chloro-2-trifluoromethanesulphonyloxy)-phenyl]-1-piperazinyl]-propyl}-5-methyl-3-phenylisoxazole-4-carboxamide] | 0.918 | 38.9 | Ki [5]: 1000 nM

— EP1226131B1, “ISOXAZOLECARBOXAMIDE DERIVATIVES” (RECORDATI INDUSTRIA CHIMICA E FARMACEUTICA S.p.a., priority 1999, dated 2001)
